# Laboratory results as given in ChEMBL document CHEMBL1139131, “Lead optimization of 5,6-diarylpyridines as CB1 receptor inverse agonists” (Bioorg Med Chem Lett, 2007).
# Experiments:
# [1] = molecular target: Cannabinoid receptor 2 (Homo sapiens, UniProt P34972)
# Description: Binding affinity at CB2 receptor
# [2] = in vivo; conditions: Sprague-Dawley, rat
# Description: Volume of distribution in Sprague-Dawley rat
# [3] = in vivo; conditions: Sprague-Dawley, rat, brain, iv
# Description: Ratio of drug level in brain to plasma in iv dosed Sprague-Dawley rat after 0.25 hr
# [4] = in vivo; conditions: Sprague-Dawley, rat; remark: listed apart in the source
# Description: Plasma clearance in Sprague-Dawley rat
# [5] = in vivo; conditions: Sprague-Dawley, rat; remark: listed apart in the source
# Description: Half life in Sprague-Dawley rat
# [6] = in vivo; conditions: Sprague-Dawley, rat, brain, iv; remark: listed apart in the source
# Description: Ratio of drug level in brain to plasma in iv dosed Sprague-Dawley rat after 4 hrs
# [7] = in vivo; conditions: Sprague-Dawley, rat; remark: listed apart in the source
# Description: Bioavailability in Sprague-Dawley rat
# Cannabinoid receptor 2, sequence (P34972 whole entry): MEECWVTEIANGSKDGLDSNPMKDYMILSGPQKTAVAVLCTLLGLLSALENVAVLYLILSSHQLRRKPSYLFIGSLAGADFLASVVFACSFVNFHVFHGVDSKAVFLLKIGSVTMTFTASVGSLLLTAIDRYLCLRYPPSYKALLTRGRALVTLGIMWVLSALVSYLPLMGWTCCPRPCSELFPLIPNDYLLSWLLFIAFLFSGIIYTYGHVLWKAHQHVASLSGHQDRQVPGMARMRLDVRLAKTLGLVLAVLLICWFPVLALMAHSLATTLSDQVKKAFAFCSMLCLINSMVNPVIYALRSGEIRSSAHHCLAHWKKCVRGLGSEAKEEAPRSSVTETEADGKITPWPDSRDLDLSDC
Compound,IC50 [1],other results
CC(C)(O)C#Cc1nc(-c2ccccc2Cl)c(-c2ccc(Cl)cc2)cc1C#N,1800 nM,–
N#Cc1cc(-c2ccc(Cl)cc2)c(-c2ccc(Cl)cc2Cl)nc1-n1ccnc1,310 nM,–
N#Cc1cc(-c2ccc(Cl)cc2)c(-c2ccc(Cl)cc2Cl)nc1OCCNC(=O)C1CCC1,450 nM,–
NC(=O)c1cc(-c2ccc(Cl)cc2)c(-c2ccc(Cl)cc2Cl)nc1Oc1ccc(F)c(F)c1,4900 nM,–
CCC(N)(C#Cc1nc(-c2ccccc2Cl)c(-c2ccc(Cl)cc2)cc1C#N)CC,1100 nM,–
CC(C)(C)N1CCN(c2nc(-c3ccccc3Cl)c(-c3ccc(Cl)cc3)cc2C#N)CC1,2600 nM,–
CN(C)NC(=O)c1cc(-c2ccc(Cl)cc2)c(-c2ccc(Cl)cc2Cl)nc1Oc1ccc(F)c(F)c1,1800 nM,Vd [2]: 6.7 L/kg; Kp at […] [3]: 1.2; clearance [4]: 24 mL/min/kg; half-life [5]: 246 min; Kp at 4 h [6]: 3; bioavailability [7]: 26%
N#Cc1cc(-c2ccc(Cl)cc2)c(-c2ccc(Cl)cc2Cl)nc1Oc1cc(Cl)cc(Cl)c1,5600 nM,–
Cn1cc(-c2nc(-c3ccccc3Cl)c(-c3ccc(Cl)cc3)cc2C#N)cn1,3300 nM,–
N#Cc1cc(-c2ccc(Cl)cc2)c(-c2ccc(Cl)cc2Cl)nc1NC(=O)c1ccc(F)c(F)c1,315 nM,–
N#Cc1cc(-c2ccc(Cl)cc2)c(-c2ccccc2Cl)nc1N1CCN(S(=O)(=O)c2cc(F)cc(F)c2)CC1,1400 nM,–
CC(C)N1CCN(c2nc(-c3ccccc3Cl)c(-c3ccc(Cl)cc3)cc2C#N)C(=O)C1=O,715 nM,–
N#Cc1cc(-c2ccc(Cl)cc2)c(-c2ccc(Cl)cc2Cl)nc1Oc1ccc(Cl)cc1,4200 nM,–
N#Cc1cc(-c2ccc(Cl)cc2)c(-c2ccccc2Cl)nc1-c1cncnc1,4300 nM,–
N#Cc1cc(-c2ccc(Cl)cc2)c(-c2ccc(Cl)cc2Cl)nc1Oc1ccc(F)c(F)c1,4100 nM,Vd [2]: 1.5 L/kg; Kp at […] [3]: 0.1; clearance [4]: 3.5 mL/min/kg; half-life [5]: 336 min; Kp at 4 h [6]: 0.61; bioavailability [7]: 66%
N#Cc1cc(-c2ccc(Cl)cc2)c(-c2ccc(Cl)cc2Cl)nc1Oc1cccc(F)c1,2300 nM,–
N#Cc1cc(-c2ccc(Cl)cc2)c(-c2ccccc2Cl)nc1Oc1ccc(F)c(F)c1,5700 nM,–
N#Cc1cc(-c2ccc(Cl)cc2)c(-c2ccc(Cl)cc2Cl)nc1Oc1ccc(F)cc1,4400 nM,–
COc1ccc(Oc2nc(-c3ccc(Cl)cc3Cl)c(-c3ccc(Cl)cc3)cc2C#N)cc1,3800 nM,–
N#Cc1cc(-c2ccc(Cl)cc2)c(-c2ccccc2Cl)nc1-c1cccnc1,3700 nM,–

# More lines, main results first:
IC50 [1],Compound,other results
320 nM,N#Cc1cc(-c2ccc(Cl)cc2)c(-c2ccc(Cl)cc2Cl)nc1Oc1cc(F)cc(F)c1,–
730 nM,N#Cc1cc(-c2ccc(Cl)cc2)c(-c2ccc(Cl)cc2Cl)nc1OC1CCOC1 (configuration not stated),–
465 nM,N#Cc1cc(-c2ccc(Cl)cc2)c(-c2ccc(Cl)cc2Cl)nc1-n1nnc2ccccc21,–
1100 nM,CC(C)(C)C(=O)N1CCN(c2nc(-c3ccccc3Cl)c(-c3ccc(Cl)cc3)cc2C#N)CC1,–
1800 nM,CC(C)CNc1nc(-c2ccc(Cl)cc2Cl)c(-c2ccc(Cl)cc2)cc1C#N,–
650 nM,CNN(C)C(=O)c1cc(-c2ccc(Cl)cc2)c(-c2ccc(Cl)cc2Cl)nc1Oc1ccc(F)c(F)c1,–
4100 nM,N#Cc1cc(-c2ccc(Cl)cc2)c(-c2ccc(Cl)cc2Cl)nc1Oc1cccc(Cl)c1,–
430 nM,N#Cc1cc(-c2ccc(Cl)cc2)c(-c2ccc(Cl)cc2Cl)nc1OCC1CCOC1 (configuration not stated),–
4000 nM,N#Cc1cc(-c2ccc(Cl)cc2)c(-c2ccc(Cl)cc2Cl)nc1N1CCCCC1,–
1700 nM,CC(C)(C)C(=O)Nc1nc(-c2ccc(Cl)cc2Cl)c(-c2ccc(Cl)cc2)cc1C#N,–
860 nM,CC(C)Oc1nc(-c2ccc(Cl)cc2Cl)c(-c2ccc(Cl)cc2)cc1C#N,–
5200 nM,N#Cc1cc(-c2ccc(Cl)cc2)c(-c2ccc(Cl)cc2Cl)nc1Sc1ccc(F)cc1,–
2800 nM,N#Cc1cc(-c2ccc(Cl)cc2)c(-c2ccc(Cl)cc2Cl)nc1Nc1ccc(F)cc1,–
2100 nM,CC(C)(C)C#Cc1nc(-c2ccccc2Cl)c(-c2ccc(Cl)cc2)cc1C#N,–
1600 nM,CC(C)NC(=O)c1cc(-c2ccc(Cl)cc2)c(-c2ccc(Cl)cc2Cl)nc1Oc1ccc(F)c(F)c1,–
